Measured values taken from patent publication US10073103B1, “Rapid measurement of total vitamin D in blood” (Theranos, Inc., priority 2013, dated 2018).
Like-named read-outs stand apart in the source and are kept apart here.

Legend:
[1] = test system: antivitamin-D coated microparticles; design: concentration or dose not given beside the values; conditions: as stated in the manufacturer's product insert; cited from earlier work
[2] = as stated in the manufacturer's product insert, b197 cites literature, cited from earlier work
[3] = test system: antibody to 25-hydroxy vitamin D; conditions: as stated in the manufacturer's product insert; cited from earlier work
[4] = test system: anti-25-hydroxy vitamin D antibodies (Ab5H10 and Ab2F4); assay: Cross-reactivity test of the present competitive chemiluminescent ELISA in low BSA buffer; format: binding, sheep; conditions: for Cross reactivity as potentially interfering compound (in words): final assay conditions
Protocol: The liquid phase of the assay reaction included the sample (mixed with the sample diluent) and included the anti-vitamin-D antibodies and the alkaline phosphatase (AP) conjugate. As discussed below, in many cases mixtures of two types of anti-vitamin D antibodies were used. For example, in many cases, the anti-vitamin-D antibodies Ab5H10 and Ab2F4 were mixed into the diluted sample (final concentrations 10 ng/mL Ab5H10 and 5 ng/mL Ab2F4), and then the AP conjugate was mixed into the solution that included the sample, the sample diluent, and the anti-vitamin-D antibodies. This liquid mixture was incubated with the capture surface (anti-sheep antibody bound to UltraAvidin™-coated polystyrene).
Vitamin D assay methods using pepsin degradation of vitamin D binding proteins at low pH were then further optimized in subsequent experiments, including experiments performed at an operating temperature of 34° C. […] This sample treatment and assay protocol consisted of a 1:5 dilution of the sample into 10 mg/mL pepsin in 100 mM citrate buffer pH 2.6, followed by a 1:8 dilution into 50 mM TRIS pH 8.0 which brought the pH of the diluted sample to 8.0 and neutralized the pepsin. Then the sheep anti-25-hydroxy vitamin D antibody was added and incubated with the sample for 10 minutes. Following addition of the anti-25-hydroxy vitamin D antibody, the 25-hydroxy vitamin D-AP conjugate was added, resulting in a final sample dilution of 1:50. The mixture was then incubated on the anti-sheep capture surface for 5 minutes, followed by a wash and 5 minute substrate incubation.
1. Sample was diluted 1:5 into 100 mM Citrate buffer pH 2.6 containing 10 mg/mL pepsin and mixed (final pH 3.9) for 5 minutes at 34° C.
2. Treated sample was diluted a further 1:8 into 50 mM TRIS buffer pH 8.0 to permanently deactivate the pepsin, and anti-25-hydroxy vitamin D antibody in a blocking buffer was spiked in and mixed. This mixture was incubated for 10 minutes.
3. The AP-labeled 25-hydroxy vitamin D was added to the sample mixture and then transferred to the capture surface (biotinylated anti-sheep secondary antibody bound to UltraAvidin™-coated polystyrene) and incubated for 5 minutes.
4. The surface was washed six times (1 minute for each wash cycle) with 0.05% Tween20® in 50 mM TBS containing 0.05% sodium azide at pH8.0.
5. The washed capture surface was exposed to enzyme substrate for five minutes and the chemiluminescence was read in an automated luminometer.
Tests were performed in order to determine whether non-target compounds could interfere with the assay results. Such tests, termed “cross-reactivity tests”, measured the change in measured 25-hydroxy vitamin D due to the presence of a non-target substance by comparing the value of 25-hydroxy vitamin D measured by the present methods where a potentially interfering compound was in the sample, as compared to the value of 25-hydroxy vitamin D measured by the present methods in the absence of the potentially interfering compound. Cross reactivity testing was conducted using the final assay conditions in a low BSA buffer matrix (0.03% BSA in TBS). Cross-reactivity was reported in these assays as % recovery=100×([measured vitamin D])/([nominal vitamin D]); [measured vitamin D] is the 25-hydroxy vitamin D concentration measured in the presence of the potentially interfering compound, and [nominal vitamin D] is the 25-hydroxy vitamin D concentration measured in the absence of the potentially interfering compound. […] (Note that an interfering compound would displace labeled 25-hydroxy vitamin D in the competition assays disclosed herein, so that the interfering compound would cause an apparent (erroneous) increase in the measured 25-hydroxy vitamin D.) For comparison, values for 25-hydroxy vitamin D3 (a direct target of the assay, and not a cross-reactant) are presented in the table.

[5] = as stated in the manufacturer's product insert; cited from earlier work
[6] = Reagent stability: lyophilized pepsin versus frozen aliquots, compared by vitamin D results on clinical samples; conditions: 10 mg/mL, reconstituted with 100 mM citrate buffer pH 2.6
Protocol: The stability of pepsin in frozen aliquots of aqueous pepsin solution and of dry, lyophilized pepsin (e.g., a lyophilized powder formed from an aqueous pepsin solution) was measured. Pepsin was lyophilized in containers suitable for use when reconstituted, e.g., in an automated assay device. The pepsin was provided in a solution at a concentration of 10 mg/mL and was lyophilized into the containers to obtain the final reconstituted amount and concentration equal to the concentration and amounts used in the assay methods disclosed herein. The containers of lyophilized reagent were placed into cartridges (arrays including several such containers) and the reagent was reconstituted with 100 mM citrate buffer (pH 2.6). Clinical samples were used for comparison, and the vitamin D results were calculated for both conditions based on the standard curve obtained for frozen pepsin/buffer aliquots.

[7] = test substance 50 ng/mL, OORL = out of range - low, below the detection limit
[8] = test substance 50 ng/mL, low BSA buffer
[9] = test substance 100 ng/mL, OORL = out of range - low, below the detection limit
[10] = test substance 100 ng/mL, low BSA buffer
[11] = test substance 150 ng/mL, OORL = out of range - low, below the detection limit
[12] = test substance 150 ng/mL, low BSA buffer (0.03% BSA in TBS)

Compound	Vitamin D metabolite cross reactivity, DiaSorin Liaison 25 OH Vitamin D TOTAL [1]	Vitamin D metabolite cross reactivity, IDS ELISA kit [2]	Vitamin D metabolite cross reactivity, DiaSorin 25-Hydroxyvitamin D 125I RIA [3]	Vitamin D metabolite cross reactivity, Present Methods [4]	Conc., ng/mL Mean (measured 25-hydroxy vitamin D) [4, 7]	Signal, RLU Mean [4, 8]	Conc., ng/mL Mean (measured 25-hydroxy vitamin D) [4, 9]	Signal, RLU Mean [4, 10]	Conc., ng/mL Mean (measured 25-hydroxy vitamin D) [4, 11]	Signal, RLU Mean [4, 12]	Vitamin D metabolite cross reactivity, Roche Vitamin D3 (25-OH) [5]	Cross reactivity as potentially interfering compound (in words) ([4]; low BSA buffer)	other results
C=C1CC[C@H](O)C/C1=C/C=C1\CCC[C@]2(C)[C@@H]([C@H](C)CCCC(C)(C)O)CC[C@@H]12 [25-Hydroxy vitamin D3, 25-hydroxy vitamin D3]	100%	100%	100%	100%	55.5 ng/mL	4044 RLU	76.5 ng/mL	2941 RLU	104.5 ng/mL	2432 RLU	100%		% Recovery ([4]; test substance 10 ng/mL): 110%; Conc., ng/mL Mean (measured 25-hydroxy vitamin D) ([4]; test substance 10 ng/mL): 11.0 ng/mL; Signal, RLU Mean ([4]; test substance 10 ng/mL, low BSA buffer): 20071 RLU; % Recovery ([4]; test substance 25 ng/mL): 83%; Conc., ng/mL Mean (measured 25-hydroxy vitamin D) ([4]; test substance 25 ng/mL): 20.8 ng/mL; Signal, RLU Mean ([4]; test substance 25 ng/mL, low BSA buffer): 14076 RLU; % Recovery ([4]; test substance 50 ng/mL): 111%; % Recovery ([4]; test substance 100 ng/mL): 77%; % Recovery ([4]; test substance 150 ng/mL): 70%
C=C1/C(=C\C=C2/CCC[C@]3(C)[C@@H]([C@H](C)/C=C/[C@H](C)C(C)(C)O)CC[C@@H]23)C[C@@H](O)C[C@@H]1O [1.25(OH)2 D2, 1,25-dihydroxy vitamin D2]	40%		11%										
C=C1CC[C@H](O)C/C1=C/C=C1\CCC[C@]2(C)[C@@H]([C@H](C)/C=C/[C@H](C)C(C)(C)O)CC[C@@H]12 [25(OH) D2, 25-hydroxy vitamin D2]	104%	75%	100%	110%							<10%		Vitamin D metabolite cross reactivity, IDS ELISA kit ([2]; listed as 25-hydroxy Vitamin D2): 75%
C=C1CCC(O)C/C1=C\C=C1\CCCC2(C)C1CCC2C(C)CCC(O)C(C)(C)O (stereo not drawn) [24,25-Dihydroxy Vitamin D3, 24,25-dihydroxy vitamin D3]		>100%			OORL	25059 RLU	OORL	23735 RLU	OORL	22992 RLU		No cross reactivity	
C=C1CC[C@H](O)C/C1=C/C=C1\CCC[C@]2(C)[C@@H]([C@H](C)CCCC(C)C)CC[C@@H]12 [Cholecalciferol (Vitamin D3), cholecalciferol]	<1%	<0.01%	0.8%	<0.01%	OORL	31046 RLU	OORL	30864 RLU	OORL	31607 RLU	<1%	No cross reactivity	
C=C1CC[C@H](O)C/C1=C/C=C1\CCC[C@]2(C)[C@@H]([C@H](C)/C=C/[C@H](C)C(C)C)CC[C@@H]12 [Ergocalciferol (Vitamin D2), ergocalciferol]	<1%	<0.3%	0.8%	<0.01%	OORL	30040 RLU	OORL	27040 RLU	OORL	30935 RLU	<1%	No cross reactivity	
pepsin: porcine gastric mucosa pepsin (Sigma catalog # P7000)													Stability: results with lyophilized reagent versus (thawed) frozen aliquot [6]: no significant differences
C=C1/C(=C\C=C2/CCC[C@]3(C)[C@@H]([C@H](C)CCCC(C)(C)O)CC[C@@H]23)C[C@@H](O)C[C@@H]1O [1α,25-Dihydroxy Vitamin D3, 1α,25-dihydroxy vitamin D3]	17%		11%	70%	36.5 ng/mL	7804 RLU	60.6 ng/mL	3642 RLU	107.1 ng/mL	2352 RLU	up to 100%	Some cross reactivity	% Recovery ([4]; test substance 50 ng/mL): 73%; % Recovery ([4]; test substance 100 ng/mL): 61%; % Recovery ([4]; test substance 150 ng/mL): 71%
